Source: patent US9707233B2, “Heterocyclylamines as PI3K inhibitors” (Incyte Corporation, priority 2011, dated 2017)

Target: PI3Kδ (p110δ/p85α) (Homo sapiens (Human), UniProt O00329)
Test: PI3Kδ scintillation proximity assay (Example A3)
Type: biochemical
Conditions: 20 μM ATP, 20 μM PIP2, 4 nM PI3Kδ; read-out: PI3Kδ SPA IC50
How it was run: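 IC50 derived by fitting percent control activity against log inhibitor concentration. Radiolabelled product was measured by scintillation counting on WGA SPA beads after overnight shaking. The kinase reaction used 4 nM p110δ/p85α, 20 μM ATP (with [γ-33P]ATP) and 20 μM PIP2 at pH 6.7 and room temperature, with 0.5% DMSO final.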

Sequence of PI3Kδ (p110δ/p85α) (O00329 whole entry): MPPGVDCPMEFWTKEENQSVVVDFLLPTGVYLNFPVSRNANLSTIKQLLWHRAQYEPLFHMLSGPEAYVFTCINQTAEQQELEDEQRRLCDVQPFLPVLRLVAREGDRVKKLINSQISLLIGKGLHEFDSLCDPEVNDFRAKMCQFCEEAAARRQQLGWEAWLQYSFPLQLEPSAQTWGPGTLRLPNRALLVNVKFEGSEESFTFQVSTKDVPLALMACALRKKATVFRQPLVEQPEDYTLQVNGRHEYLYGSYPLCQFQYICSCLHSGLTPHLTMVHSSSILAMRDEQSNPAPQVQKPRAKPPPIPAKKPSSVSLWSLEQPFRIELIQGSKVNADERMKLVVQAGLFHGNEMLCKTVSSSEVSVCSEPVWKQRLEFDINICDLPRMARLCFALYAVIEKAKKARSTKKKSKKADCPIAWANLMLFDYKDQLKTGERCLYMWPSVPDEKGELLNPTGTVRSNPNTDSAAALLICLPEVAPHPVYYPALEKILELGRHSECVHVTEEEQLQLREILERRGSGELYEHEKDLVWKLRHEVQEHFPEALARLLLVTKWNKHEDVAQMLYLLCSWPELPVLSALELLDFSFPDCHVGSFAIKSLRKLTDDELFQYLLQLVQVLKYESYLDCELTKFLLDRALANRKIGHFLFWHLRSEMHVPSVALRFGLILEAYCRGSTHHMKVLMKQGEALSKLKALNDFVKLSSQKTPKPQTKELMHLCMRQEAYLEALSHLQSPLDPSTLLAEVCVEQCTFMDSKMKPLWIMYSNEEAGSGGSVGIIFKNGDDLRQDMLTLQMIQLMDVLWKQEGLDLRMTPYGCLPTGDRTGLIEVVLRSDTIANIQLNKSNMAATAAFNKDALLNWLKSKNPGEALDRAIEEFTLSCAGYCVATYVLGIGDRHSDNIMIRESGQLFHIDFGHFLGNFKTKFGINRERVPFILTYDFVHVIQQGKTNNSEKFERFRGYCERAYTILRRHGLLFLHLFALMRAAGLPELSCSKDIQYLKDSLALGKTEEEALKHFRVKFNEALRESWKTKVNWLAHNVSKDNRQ
Sequence of PI3Kδ (p110δ/p85α) (P27986 whole entry partner): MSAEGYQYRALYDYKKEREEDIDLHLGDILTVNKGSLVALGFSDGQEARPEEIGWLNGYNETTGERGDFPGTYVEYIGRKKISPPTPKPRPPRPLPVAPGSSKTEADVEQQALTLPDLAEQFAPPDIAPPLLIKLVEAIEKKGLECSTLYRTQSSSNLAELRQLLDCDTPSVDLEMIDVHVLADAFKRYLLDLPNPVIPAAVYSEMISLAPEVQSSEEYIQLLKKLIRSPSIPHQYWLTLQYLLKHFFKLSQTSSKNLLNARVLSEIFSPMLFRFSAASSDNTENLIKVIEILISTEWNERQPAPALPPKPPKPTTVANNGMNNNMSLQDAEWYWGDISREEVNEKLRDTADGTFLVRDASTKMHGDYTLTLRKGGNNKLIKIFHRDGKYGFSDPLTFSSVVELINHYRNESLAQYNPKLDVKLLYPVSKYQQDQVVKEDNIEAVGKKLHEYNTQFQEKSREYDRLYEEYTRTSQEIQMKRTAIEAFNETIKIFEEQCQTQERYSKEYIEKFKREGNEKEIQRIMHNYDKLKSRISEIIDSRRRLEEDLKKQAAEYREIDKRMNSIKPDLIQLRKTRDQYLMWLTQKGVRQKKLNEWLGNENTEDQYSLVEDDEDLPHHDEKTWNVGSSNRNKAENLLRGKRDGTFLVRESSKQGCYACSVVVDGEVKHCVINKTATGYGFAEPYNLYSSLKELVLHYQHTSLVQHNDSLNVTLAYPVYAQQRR

Compound	IC50 [nM]
CCOc1c(C(C)n2nc(C)c3c(N)ncnc32)cc(Cl)c(C#N)c1-c1cncc(C#N)c1 (single isomer, unassigned) [Example 330, 5-{3-[1-(4-amino-3-methyl-1H-pyrazolo[3,4-d]pyrimidin-1-yl)ethyl]-5-chloro-6-cyano-2-ethoxyphenyl}nicotinonitrile]	≤ 10
CCOc1c(C(C)n2nc(C)c3c(N)ncnc32)cc(Cl)c(C#N)c1-c1cncc(C(=O)N(C)C)c1 (single isomer, unassigned) [Example 331, 5-{3-[1-(4-amino-3-methyl-1H-pyrazolo[3,4-d]pyrimidin-1-yl)ethyl]-5-chloro-6-cyano-2-ethoxyphenyl}-N,N-dimethylnicotinamide]	≤ 10
COc1c(C(C)n2nc(C)c3c(N)ncnc32)cc(Cl)c(C#N)c1-c1cncc(S(C)(=O)=O)c1 (single isomer, unassigned) [Example 332, 4-[1-(4-amino-3-methyl-1H-pyrazolo[3,4-d]pyrimidin-1-yl)ethyl]-6-chloro-3-methoxy-2-[5-(methylsulfonyl)pyridin-3-yl]benzonitrile]	≤ 10
CCOc1c(C(C)n2nc(C)c3c(N)ncnc32)cc(Cl)c(C#N)c1-c1ccnc(C(=O)N(C)C)c1 (single isomer, unassigned) [Example 334, 4-{3-[1-(4-amino-3-methyl-1H-pyrazolo[3,4-d]pyrimidin-1-yl)ethyl]-5-chloro-6-cyano-2-ethoxyphenyl}-N,N-dimethylpyridine-2-carboxamide]	≤ 10
CCOc1c(C(C)n2nc(C)c3c(N)ncnc32)cc(C)c(C#N)c1-c1cncc(S(C)(=O)=O)c1 (single isomer, unassigned) [Example 335, 4-[1-(4-amino-3-methyl-1H-pyrazolo[3,4-d]pyrimidin-1-yl)ethyl]-3-ethoxy-6-methyl-2-[5-(methylsulfonyl)pyridin-3-yl]benzonitrile]	≤ 10
CCOc1c(C(C)n2nc(C)c3c(N)ncnc32)cc(C)c(C#N)c1-c1ccnc(C(=O)N(C)C)c1 (single isomer, unassigned) [Example 340, 4-{3-[1-(4-amino-3-methyl-1H-pyrazolo[3,4-d]pyrimidin-1-yl)ethyl]-6-cyano-2-ethoxy-5-methylphenyl}-N,N-dimethylpyridine-2-carboxamide]	≤ 10
CCOc1c(C(C)n2nc(C)c3c(N)ncnc32)cc(Cl)c(F)c1C1CNC(=O)C1 (single isomer, unassigned) [Example 345, 4-{3-[1-(4-amino-3-methyl-1H-pyrazolo[3,4-d]pyrimidin-1-yl)ethyl]-5-chloro-2-ethoxy-6-fluorophenyl}pyrrolidin-2-one]	50 to 200
CCOc1c(C(C)n2nc(C)c3c(N)ncnc32)cc(Cl)c(F)c1C1CNC(=O)C1 (single isomer, unassigned) [Example 346, 4-{3-[1-(4-amino-3-methyl-1H-pyrazolo[3,4-d]pyrimidin-1-yl)ethyl]-5-chloro-2-ethoxy-6-fluorophenyl}pyrrolidin-2-one]	≤ 10
CCOc1c(C(C)n2nc(C)c3c(N)ncnc32)cc(Cl)c(F)c1C1CNC(=O)C1 (single isomer, unassigned) [Example 347, 4-{3-[1-(4-amino-3-methyl-1H-pyrazolo[3,4-d]pyrimidin-1-yl)ethyl]-5-chloro-2-ethoxy-6-fluorophenyl}pyrrolidin-2-one]	≤ 10
CCOc1c(C(C)n2nc(C)c3c(N)ncnc32)cc(Cl)c(F)c1C1CNC(=O)C1 (single isomer, unassigned) [Example 348, 4-{3-[1-(4-amino-3-methyl-1H-pyrazolo[3,4-d]pyrimidin-1-yl)ethyl]-5-chloro-2-ethoxy-6-fluorophenyl}pyrrolidin-2-one]	50 to 200
CCOc1c(C(C)n2nc(C)c3c(N)ncnc32)cc(Cl)c(C#N)c1C1CNC(=O)C1 (single isomer, unassigned) [Example 349, 4-[1-(4-amino-3-methyl-1H-pyrazolo[3,4-d]pyrimidin-1-yl)ethyl]-6-chloro-3-ethoxy-2-(5-oxopyrrolidin-3-yl)benzonitrile]	≤ 10
CCOc1c(C(C)n2nc(C)c3c(N)ncnc32)cc(Cl)c(C#N)c1C1CNC(=O)C1 (single isomer, unassigned) [Example 350, 4-[1-(4-amino-3-methyl-1H-pyrazolo[3,4-d]pyrimidin-1-yl)ethyl]-6-chloro-3-ethoxy-2-(5-oxopyrrolidin-3-yl)benzonitrile]	> 500
CCOc1c(C(C)n2nc(C)c3c(N)ncnc32)cc(Cl)c(C#N)c1C1CNC(=O)C1 (single isomer, unassigned) [Example 351, 4-[1-(4-amino-3-methyl-1H-pyrazolo[3,4-d]pyrimidin-1-yl)ethyl]-6-chloro-3-ethoxy-2-(5-oxopyrrolidin-3-yl)benzonitrile]	50 to 200
CCOc1c(C(C)n2nc(C)c3c(N)ncnc32)cc(Cl)c(C#N)c1C1CNC(=O)C1 (single isomer, unassigned) [Example 352, 4-[1-(4-amino-3-methyl-1H-pyrazolo[3,4-d]pyrimidin-1-yl)ethyl]-6-chloro-3-ethoxy-2-(5-oxopyrrolidin-3-yl)benzonitrile]	≤ 10
CCOc1c(C(C)n2nc(C)c3c(N)ncnc32)cc(Cl)c(F)c1C1COC(=O)N1 (single isomer, unassigned) [Example 354, 4-{3-[1-(4-amino-3-methyl-1H-pyrazolo[3,4-d]pyrimidin-1-yl)ethyl]-5-chloro-2-ethoxy-6-fluorophenyl}-1,3-oxazolidin-2-one]	≤ 10
CCOc1c(C(C)n2nc(C)c3c(N)ncnc32)cc(Cl)c(F)c1C1CNC(=O)O1 (single isomer, unassigned) [Example 355, 5-{3-[1-(4-amino-3-methyl-1H-pyrazolo[3,4-d]pyrimidin-1-yl)ethyl]-5-chloro-2-ethoxy-6-fluorophenyl}-1,3-oxazolidin-2-one]	50 to 200
CCOc1c(C(C)n2nc(C)c3c(N)ncnc32)cc(Cl)c(F)c1C1CNC(=O)O1 (single isomer, unassigned) [Example 356, 5-{3-[1-(4-amino-3-methyl-1H-pyrazolo[3,4-d]pyrimidin-1-yl)ethyl]-5-chloro-2-ethoxy-6-fluorophenyl}-1,3-oxazolidin-2-one]	50 to 200
CCOc1c(C(C)n2nc(C)c3c(N)ncnc32)cc(Cl)c(F)c1C1CNC(=O)O1 (single isomer, unassigned) [Example 358, 5-{3-[1-(4-amino-3-methyl-1H-pyrazolo[3,4-d]pyrimidin-1-yl)ethyl]-5-chloro-2-ethoxy-6-fluorophenyl}-1,3-oxazolidin-2-one]	> 500
CCOc1c(C(C)n2nc(C)c3c(N)ncnc32)cc(C)c(C#N)c1C1CN(CC(C)O)C1 (stereo in doubt) [Example 326, 4-[1-(4-amino-3-methyl-1H-pyrazolo[3,4-d]pyrimidin-1-yl)ethyl]-3-ethoxy-2-{1-[(2S)-2-hydroxypropyl]azetidin-3-yl}-6-methylbenzonitrile]	≤ 10
CCOc1c(C(C)n2nc(C)c3c(N)ncnc32)cc(Cl)c(C#N)c1C1CNC(=O)O1 (stereo not drawn) [323 (2nd peak), 4-[1-(4-amino-3-methyl-1H-pyrazolo[3,4-d]pyrimidin-1-yl)ethyl]-6-chloro-3-ethoxy-2-(2-oxo-1,3-oxazolidin-5-yl)benzonitrile]	≤ 10
